# Experimental data from patent US8226986B2 (priority 2006, dated 2012).
# Like-named read-outs stand apart in the source and are kept apart here. Marks after values point to notes of the source that are not given here.
# Legend:
# [1] = system: neutrophil adhesion, leukocyte-mediated inflam.; conditions: cited from earlier work
# Irritable bowel syndrome = conditions: 25, 50, or 100 mg/kg IP, 10 minutes post IBS model; cited from earlier work
# [2] = system: myocardial ischemia-reperfusion injury; set-up: dose or concentration left out as unconfirmed; conditions: 1 um, 10 um NaHS, perfusion, 10 min prior to LCA occlusion; cited from earlier work
# cardioprotectant = conditions: 2.8 umol/kg IV, time zero; cited from earlier work
# erectile dysfunction = conditions: 0.25-80 umol/kg, Intracaver., before experiment; cited from earlier work
# [3] = system: aortic occlusion-induced ischemia/reperfusion (I/R) injury; assay type: in vivo, pig; conditions: median, initial study
# Cerebral Ischemia = conditions: 0.18 mmol/kg IP, 24 hours after MCAO; cited from earlier work
# vascular calcification = conditions: 2.8 or 14 uM/day, daily; cited from earlier work
# [4] = system: Gastric injury caused by NSAIDS; conditions: 25, 50, 100, or 150 mol/kg IP, immediately prior; cited from earlier work
# [5] = system: myocardial ishemia-reperfusion injury; conditions: 3 mg/kg IP, 15 min before LAD; cited from earlier work
# inflammation = conditions: 1, 5 and 10 mg/kg IP, 1-6 hours before study; cited from earlier work
molecule,measurement,setting,value
sodium sulfide [Na2S],Benefit: inflammation,"[1]; rat, in vivo, ip",inhibits inflammation
Nc1ccc(O)c(C(=O)Oc2ccc(-c3cc(=S)ss3)cc2)c1 [ATB-429],Benefit: pain and inflammation,Irritable bowel syndrome,Pain killing and some
O.[Na+].[SH-] [NaHS•xH2O],Benefit: infarct size,[2],"NAHS, limited infarct"
"S [NaHS, sodium hydrosulfide]",Benefit: central venous pressure,cardioprotectant,decrease central
same,Benefit: intra-cavernous pressure,erectile dysfunction,Increase intra-
same,"Tail moment (comet assay, DNA damage)",[3]; 1 h after clamping,0.12 §
same,"Tail moment (comet assay, DNA damage)",[3]; 2 h after clamping,0.12 §
same,"Tail moment (comet assay, DNA damage)",[3]; 4 h after clamping,0.14
same,"Tail moment (comet assay, DNA damage)",[3]; 8 h after clamping,0.14
same,"Tail moment (comet assay, DNA damage)",[3]; Before clamping,0.11
same,"Tail moment (comet assay, DNA damage)",[3]; Before infusion,0.125
same,infarct volume,Cerebral Ischemia,increased to 150% of % of control
same,Benefit: vascular calcification,vascular calcification,reduces vascular
same,Benefit: injury produced by NSAID and ASA,[4],reduces injury
same,Benefit: cardioprotection,[5],cardioprotective opens
same,Benefit: inflammation,"[1]; 1-100 uMol/kg IP, 30 min prior to cargeenan injection",inhibits inflammation
same,Benefit: substance P levels,inflammation,Increases substance P
